The values that follow come from patent US20240091235A1, “USE AS SELECTIVE AGONIST OF MELANOCORTIN-4 RECEPTOR” (priority 2020, published 2024).

For one data set, the system named is skin pigmentation. Particulars: reported, Clement et al., Nature Medicine, 2018; cited from earlier work.
For data set [1] the following is noted: mouse, in vivo. As for the experimental part: With respect to skin pigmentation—which is an off-target effect of MC4R agonist, the distribution and accumulation of the drug were evaluated by measuring the drug concentration in the skin and plasma after repeated administration in a db/db mouse model lacking leptin receptor.
Data set [2] relates to skin and skin hair pigmentation. The experiment in a line: Skin pigmentation in repeated toxicity test in monkeys. Particulars: repeatedly administered for 2 weeks, FIG. 2. Type of data set: in vivo. As to the method:
In order to confirm the possibility of occurrence of skin pigmentation—which is an off-target effect of MC4R agonist, pigmentation patterns in the skin and skin hair were measured in a repeated toxicity test in monkeys, and the results are represented in FIG. 2.

Data set [3] has as its target T1, MC4R (Homo sapiens, UniProt P32245). The experiment in a line: Binding affinity, membranes of HEK-293 cell lines expressing MC4R. Details: expressed in transfected cells. As for the experimental part:
After the CHO-K1 cell line expressing human recombinant MC1R and the HEK-293 cell lines expressing MC4R were established, membranes were collected from each cell line. In a 96-well cell culture plate, the cell line membrane and 25 mM HEPES-KOH adsorption buffer (pH 7.0) containing the MCR agonist diluted at each step concentration were added, and the reaction was carried out. EC50 was calculated as a concentration that induces 50% of the maximum binding that can be induced by each agonist, and the results are represented in Table 2.
Target sequence in this assay (P32245 whole entry): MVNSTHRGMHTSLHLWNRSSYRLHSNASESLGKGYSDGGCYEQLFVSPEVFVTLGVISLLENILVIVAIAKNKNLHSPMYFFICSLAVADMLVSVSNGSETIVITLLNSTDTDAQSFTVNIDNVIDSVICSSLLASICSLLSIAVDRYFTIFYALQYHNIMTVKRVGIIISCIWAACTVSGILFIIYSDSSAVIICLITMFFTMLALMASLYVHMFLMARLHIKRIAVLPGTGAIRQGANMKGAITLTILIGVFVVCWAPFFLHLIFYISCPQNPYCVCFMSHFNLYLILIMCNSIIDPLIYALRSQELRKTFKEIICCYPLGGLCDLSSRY

The target in data set [4] is T1, MC4R. The experiment in a line: cAMP Hunter Gs-coupled cAMP assay (CHO-K1 cell line), MC4R. Details: expressed in transfected cells; host or cells: CHO-K1 (cAMP Hunter Gs-coupled cell line). The class given is cell-based. As for the experimental part: (§1) After cAMP Hunter Gs-coupled cell lines (CHO-K1 cell line) in which each of MC1R and MC4R was overexpressed were established so that the increase in the cAMP level in cells due to agonist reaction was measurable, the cells were inoculated into each well of a white cell culture plate and incubated for 24 hours in a 37° C. incubator in the presence of 5% CO2. After the incubation, the medium was removed, and 15 μL of a 2:1 HBBS/10 mM HEPES:cAMP XS+Ab reagent was added. After 5 μL of the sample diluted 4 times with buffer was added, the vehicle concentration was set to 1%, and the MC4R agonist compound diluted at each step concentration was added, followed by reaction at 37° C. for 30 minutes. The activity (%) of each agonist compound is expressed as 100%×(average RLU value of sample−average RLU value of vehicle control)/(average RLU value of max control−average RLU value of vehicle control), and the value was analyzed by CBIS data analysis suite (ChemInnovation, CA).
Target sequence in this assay (P32245 whole entry): as above

Data set [5] concerns the target T2, MC1R (Homo sapiens, UniProt Q01726). Briefly: Pathhunter eXpress β-arrestin assay (U2OS cell line), MC1R. Type of data set: cell-based. Details: expressed in transfected cells; host or cells: U2OS (Pathhunter eXpress β-arrestin cell line). Particulars: 90 minutes at 37° C. An excerpt:
(§2) A Pathhunter eXpress β-arrestin cell line (U2OS cell line) in which Prolink (PK)-tagged MC1R and MC4R, and enzyme acceptor (EA)-tagged β-arrestin were expressed together was established. When the MCR-PK portion of this cell line is activated, β-arrestin-EA is mobilized, and enzyme acceptor (EA) and Prolink (PK), which are the β-galactosidase enzyme fragments, interact. The activated enzyme hydrolyzes the substrate by β-galactosidase activity to produce a chemiluminescent signal, so that the activity can be measured. After the Pathhunter eXpress β-arrestin cell line (U2OS cell line) was incubated, the cells were inoculated into each well of the cell culture plate and incubated for 48 hours in a 37° C. incubator in the presence of 5% CO2. After the incubation, 5 μL of the sample diluted 5 times with buffer was added, the vehicle concentration was set to 1%, and the MC4R agonist compound diluted at each step concentration was added, followed by reaction at 37° C. for 90 minutes. The activity (%) of each agonist compound is expressed as 100%×(average RLU value of sample−average RLU value of vehicle control)/(average maximum value of control ligand−average RLU value of vehicle control), and the value was analyzed by CBIS data analysis suite (ChemInnovation, CA).
Target sequence in this assay (Q01726 whole entry, the tested form may be a part): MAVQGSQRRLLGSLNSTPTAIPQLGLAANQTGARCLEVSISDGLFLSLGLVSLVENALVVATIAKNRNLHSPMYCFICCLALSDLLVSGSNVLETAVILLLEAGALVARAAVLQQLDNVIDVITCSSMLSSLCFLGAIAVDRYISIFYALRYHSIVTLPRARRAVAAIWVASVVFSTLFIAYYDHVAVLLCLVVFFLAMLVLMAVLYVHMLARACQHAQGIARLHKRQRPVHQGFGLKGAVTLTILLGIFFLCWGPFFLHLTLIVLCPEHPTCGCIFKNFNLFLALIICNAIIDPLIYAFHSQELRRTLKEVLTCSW
Target sequence in this assay (P32121 whole entry partner, the tested form may be a part): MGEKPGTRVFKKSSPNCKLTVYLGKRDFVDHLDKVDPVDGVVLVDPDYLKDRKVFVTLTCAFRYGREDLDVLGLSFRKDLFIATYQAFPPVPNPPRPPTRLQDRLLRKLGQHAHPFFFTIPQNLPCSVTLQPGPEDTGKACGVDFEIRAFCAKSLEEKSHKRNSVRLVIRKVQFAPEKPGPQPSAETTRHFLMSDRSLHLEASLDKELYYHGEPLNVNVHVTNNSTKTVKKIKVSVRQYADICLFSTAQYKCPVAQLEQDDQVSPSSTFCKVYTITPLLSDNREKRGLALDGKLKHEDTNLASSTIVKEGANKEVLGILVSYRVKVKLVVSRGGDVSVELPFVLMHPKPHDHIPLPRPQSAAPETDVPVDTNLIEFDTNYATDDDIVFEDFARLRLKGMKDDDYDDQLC

The target of data set [6] is T2, MC1R. Briefly: Binding affinity, membranes of CHO-K1 cell line expressing human recombinant MC1R. Details: expressed in transfected cells; host or cells: CHO-K1 (membranes). As to conditions: 25 mM HEPES-KOH buffer pH 7.0. As to the method:
In a 96-well cell culture plate, the cell line membrane and 25 mM HEPES-KOH adsorption buffer (pH 7.0) containing the MCR agonist diluted at each step concentration were added, and the reaction was carried out.
Target sequence in this assay (Q01726 whole entry, the tested form may be a part): as the sequence (Q01726 whole entry, the tested form may be a part) above

Data set [7] has as its target T3, melanocortin-4 receptor (MC4R) (Homo sapiens, UniProt P32245).
T3 construct: expressed in transfected cells
Briefly: Luciferase assay (CRE-LUC), HEK MC4R-Luc cells. The class given is cell-based.

Data set [8] deals with T4, melanocortin-1 receptor (MC1R) (Homo sapiens, UniProt Q01726).
T4 construct: expressed in transfected cells
The experiment in a line: Luciferase assay (CRE-LUC), HEK MC1R-Luc cells. The class given is cell-based. As to conditions: luminescence relative to 10 μM NDP-α-MSH. As for the experimental part:
In order to measure the agonist ability for melanocortin-1 receptor (MC1R) and melanocortin-4 receptor (MC4R), a cell line that permanently expresses MC1R, MC4R and the luciferase gene (CRE-LUC) under the control of CRE (cAMP response element) was established.
After a mammalian cell expression vector (pCDNA3 (Neo)) (Invitrogen) containing the MC1R and MC4R genes was prepared, human embryonic kidney (HEK) cell lines were transformed by using Lipofectamine 2000 (Invitrogen) together with a vector (pCRE-Luc)(Stratagen) expressing a luciferase gene (CRE-LUC) under the control of a cAMP response element (CRE). […] Each well was treated with 50 μL of a Bright-Glo luciferase reagent (Promega) and left at room temperature for 15 minutes, and then the luminescence of each well was measured by using a luminometer (Victor).
HEK MC1R-Luc cells and HEK MC4R-Luc cells were added to each well of a 96-well luminometer cell culture plate (Costar) to a size of 2.5×10^4 cells in 100 μL of a culture medium and then incubated in a 37° C. incubator in the presence of 6% CO2 for 18 hours. […] Each well was treated with 50 μL of a Bright-Glo luciferase reagent (Promega) and left at room temperature for five minutes, and then the luminescence of each well was measured by using a luminometer (Victor). […] The measurements were measured using statistical software (Prizm).

Data set [9] has as its target T2, MC1R. The experiment in a line: cAMP Hunter Gs-coupled cAMP assay (CHO-K1 cell line), MC1R. Type of data set: cell-based. Details: expressed in transfected cells; host or cells: CHO-K1 (cAMP Hunter Gs-coupled cell line). Particulars: 30 minutes at 37° C. As for the experimental part: as §1
Target sequence in this assay (Q01726 whole entry, the tested form may be a part): as above
Data set [10] has as its target T1, MC4R. Briefly: Pathhunter eXpress β-arrestin assay (U2OS cell line), MC4R. Type of data set: cell-based. Details: expressed in transfected cells; host or cells: U2OS (Pathhunter eXpress β-arrestin cell line).
Source text: as §2
Target sequence in this assay (P32245 whole entry): as the sequence (P32245 whole entry) above
Target sequence in this assay (P32121 whole entry partner): as the sequence (P32121 whole entry partner, the tested form may be a part) above

[11] abbreviates: ratio of EC50 in MC1R to EC50 in MC4R.

SMILES strings stand for the structures. Structures can show the parent of a compound that is named as a salt.

T3 sequence (P32245 whole entry): as the sequence (P32245 whole entry) above
T4 sequence (Q01726 whole entry): as the sequence (Q01726 whole entry, the tested form may be a part) above

As for `CC(=O)N[C@@H](CCCNC(=N)N)C(=O)N[C@H]1CSSC[C@@H](C(N)=O)NC(=O)[C@H](Cc2c[nH]c3ccccc23)NC(=O)[C@H](CCCNC(=N)N)NC(=O)[C@@H](Cc2ccccc2)NC(=O)[C@H](Cc2c[nH]cn2)NC(=O)[C@@H](C)NC1=O` [setmelanotide, Ac-RC[dA]H[dF]RWC-NH2 (disulfide) (AcOH salt)], the “Skin pigmentation in clinical trials” value in the data set on skin pigmentation is on record as “show skin pigmentation”.

Take `CC(C)C(=O)N([C@H]1C[C@@H](C(=O)N2CCOCC2)N(C(=O)[C@@H]2CN(C(C)(C)C)C[C@H]2c2ccc(Cl)cc2)C1)[C@H]1CC[C@@H](C)CC1.Cl` [Test Compound, N-((3S,5S)-1-((3S,4R)-1-(tert-butyl)-4-(4-chlorophenyl)pyrrolidine-3-carbonyl)-5-(morpholine-4-carbonyl)pyrrolidin-3-yl)-N-((1s,4R)-4-methylcyclohexyl)isobutyramide hydrochloride]: in data set [1], the “Accumulation of drug in the skin” value is “did not relatively accumulate in the skin”. In data set [2], the “Pigmentation on the skin and skin hair” value was “pigmentation did not appear on the skin and skin hair”. For the same compound, the EC50 is 62 nM at MC4R [3] (HEK-293 membranes, 25 mM HEPES-KOH buffer pH 7.0); 16.3 nM on MC4R [4] (CHO-K1 cell line, 30 minutes at 37° C.); 195 nM at MC1R [5]; 310 nM at MC1R [6]; 0.434 nM in data set [7] (HEK MC4R-Luc cells, luminescence relative to 10 μM NDP-α-MSH); 2.5 nM in data set [8]. Further, the EC50 at MC1R [9] was determined as 84.8 nM; on MC4R [10] (U2OS cell line, 90 minutes at 37° C.), 5.14 nM. Moreover, the “Ratio MC1R/MC4R (Binding)” value at MC4R [3] (setting [11]) is 5.00. On MC4R [4] (setting [11]), the “Ratio MC1R/MC4R (cAMP)” value was 5.21. The “Ratio MC1R/MC4R (Luciferase)” value in data set [7] (setting [11]) was found to be 5.76. The “Ratio MC1R/MC4R (β-Arrestin)” value on MC4R [10] (setting [11]) is on record as 37.98.
